Experimental data as given in ChEMBL document CHEMBL1122748, “Synthesis and evaluation of substituted 2-phenylcyclobutylamines as analogues of hallucinogenic phenethylamines: lack of LSD-like biological activity” (1984).

Legend:
Format in all cases: functional
[1] = test system: Rattus norvegicus; assay: Compound was evaluated for mean % LSD correct responses at a dos e of 10 mg/kg in rats using drug discrimination assay
[2] = test system: Rattus norvegicus; assay: Compound was evaluated for mean % LSD correct responses at a dos e of 15 mg/kg in rats using drug discrimination assay
[3] = test system: Rattus norvegicus; assay: Effective dose to cause hallucinogenic activity in rats using drug discrimination assay by intraperitoneal administration; settings: ip
[4] = test system: Rattus norvegicus; assay: Compound was evaluated for mean % LSD correct responses at a dos e of 0.75 mg/kg in rats using drug discrimination assay

Structure (SMILES)	ED50 [3]	further results
COc1cc(OC)c(C2CC[C@@H]2N)cc1OC (stereo partly drawn)	–	LSD [1]: 44%
COc1cc(OC)c(C2CC[C@H]2N)cc1OC (stereo partly drawn)	–	LSD [2]: 28%
COc1cc(C2CC2N)c(OC)cc1C (stereo not drawn)	0.163 mg/kg	LSD [4]: 93%
COc1cc(C2CC[C@@H]2N)c(OC)cc1C (stereo partly drawn)	–	LSD [1]: 53%
CCN(CC)C(=O)[C@@H]1C=C2c3cccc4[nH]cc(c34)C[C@H]2N(C)C1.O=C(O)C(O)C(O)C(=O)O	0.08 mg/kg	–
COc1cc(C2CC2N)c(OC)cc1C.Cl (stereo not drawn)	20 mg/kg	–
CCN(CC)C(=O)[C@@H]1C=C2c3cccc4[nH]cc(c34)C[C@H]2N(C)C1 [LYSERGIDE]	0.0077 mg/kg	–
